Patent US7632930B2, “Oligosaccharide derivative” (Sankyo Company Limited, priority 2003, dated 2009)

Tests used:
[1] = biological target: T1, human pancreatic α-amylase (HPA) (Homo sapiens, UniProt P04746); assay: α-Amylase inhibitory action (blue starch, Neo-Amylase Test); assay type: biochemical; settings: final concentration required to inhibit the activity of the HPA solution by 50%; 37° C.
T1 construct: purchased International Reagents Caribzyme AMY
T1 sequence (P04746 16-511): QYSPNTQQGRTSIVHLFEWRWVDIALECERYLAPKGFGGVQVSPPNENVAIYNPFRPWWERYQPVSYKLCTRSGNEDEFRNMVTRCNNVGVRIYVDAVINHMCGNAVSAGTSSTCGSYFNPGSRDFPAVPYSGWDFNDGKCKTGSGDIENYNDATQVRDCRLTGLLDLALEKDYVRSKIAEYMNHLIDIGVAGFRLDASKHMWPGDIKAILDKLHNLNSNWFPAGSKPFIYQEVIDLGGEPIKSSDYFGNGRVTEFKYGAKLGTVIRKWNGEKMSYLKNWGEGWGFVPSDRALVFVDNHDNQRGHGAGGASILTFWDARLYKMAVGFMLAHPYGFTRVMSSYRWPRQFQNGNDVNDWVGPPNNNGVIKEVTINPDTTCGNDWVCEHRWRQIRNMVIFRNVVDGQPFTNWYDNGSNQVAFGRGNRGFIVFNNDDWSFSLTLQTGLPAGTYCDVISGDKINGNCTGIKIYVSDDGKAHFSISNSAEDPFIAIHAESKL

normal mice (ddY mice) = assay: Postprandial hyperglycemia inhibitory action (cornstarch loading); assay type: in vivo; settings: ddY mice fasted 20 hours; oral 0.3 mg (test compound)/2 g (cornstarch)/kg; AUC of increase in blood glucose levels, 0.5-3 hours after dosing, vs control group
Method: Commercially available normal mice (ddY mice, males, age 8 weeks at the time of testing, supplied by Japan SLC).
(§1) (2) Experimental Methods and Results
For the dose group, a test compound and commercially available cornstarch were mixed well with 0.5% carboxymethyl cellulose to prepare a suspension that was orally administered at 0.3 mg (test compound)/2 g (cornstarch)/kg (body weight) to five mice that had been fasted in advance for 20 hours. The control group was administered with a similar suspension in the same manner with the exception of not containing the test compound.
Blood glucose levels were measured using a blood glucose analyzer (Glucoloader GXT, A & T). Inhibition rate(%)=[1−(dose group AUC/control group blood glucose increase AUC)]×100

[2] = tested on: genetically obese diabetic mice (C57BL/KsJ-db/db mice); assay: Blood glucose lowering action in genetically obese diabetic mice; assay type: in vivo; settings: 0.005% (w/w) in diet, freely ingested for 1 week, vs control group
Text: Commercially available, genetically obese diabetic mice (C57BL/KsJ-db/db mice, males, age 16 weeks at the time of testing, supplied by Clea Japan).
as §1
A test compound was mixed into a refined laboratory animal diet (carbohydrate content: 65.95% (w/w), Oriental Yeast) to a test compound concentration of 0.005% (w/w) and allowed to be freely ingested by diabetic mice for 1 week in groups of 5 mice per group. A control group was allowed similar unrestricted access to the same feed with the exception of not containing the test compound.
Blood glucose levels were measured before the start of dosing and one week after the start of dosing. Blood samples were collected from a tail vein and blood glucose levels were measured using a blood glucose analyzer (Glucoloader GXT, A & T) to calculate the blood glucose lowering rate (%) according to the following formula. Blood glucose lowering rate(%)=[1−(compound dose group blood glucose level/control group blood glucose level)]×100

IC50 [1] [µM] | SMILES | Inhibition Rate (normal mice (ddY mice)) [%] | Blood Glucose Lowering Rate [2] [%]
8.48 | C[C@H]1O[C@@H](O[C@H]2[C@H](O)[C@@H](O)[C@@H](O[C@H]3[C@H](O)[C@@H](CO)N[C@@H]3CO)O[C@@H]2CO)[C@H](O)[C@@H](O)[C@@H]1O [Example 7, (2R,3R,4R,5R)-2,5-Dihydroxymethyl-4-hydroxypyrrolidin-3-yl 4-O-(6-deoxy-β-D-glucopyranosyl)-α-D-glucopyranoside] | – | –
0.848 | COC[C@H]1O[C@@H](O[C@H]2[C@H](O)[C@@H](O)[C@@H](O[C@H]3[C@H](O)CN[C@@H]3CO)O[C@@H]2CO)[C@H](O)[C@@H](O)[C@@H]1O [Example 8, (2R,3R,4R)-4-Hydroxy-2-hydroxymethyl-pyrrolidin-3-yl 4-O-(6-methoxy-6-deoxy-β-D-glucopyranosyl)-D-glucopyranoside] | – | –

The next lines start with the compound.

SMILES | IC50 [1] [µM] | Inhibition Rate (normal mice (ddY mice)) [%] | Blood Glucose Lowering Rate [2] [%]
C[C@H]1O[C@H](O[C@H]2[C@H](O)[C@@H](O)[C@@H](O[C@H]3[C@H](O)CN[C@@H]3CO)O[C@@H]2CO)[C@H](O)[C@@H](O)[C@@H]1O [Example 1, (2R,3R,4R)-4-Hydroxy-2-(hydroxymethyl)pyrrolidin-3-yl 4-O-(6-deoxy-α-D-glucopyranosyl)-α-D-glucopyranoside] | 1.59 | – | –
C[C@H]1O[C@@H](O[C@H]2[C@H](O)[C@@H](O)[C@@H](O[C@H]3[C@H](O)CN[C@@H]3CO)O[C@@H]2CO)[C@H](O)[C@@H](O)[C@@H]1O [Example 2, (2R,3R,4R)-4-Hydroxy-2-(hydroxymethyl)pyrrolidin-3-yl 4-O-(6-deoxy-β-D-glucopyranosyl)-α-D-glucopyranoside] | 0.453 | 64 | 47
C[C@H]1O[C@H](O[C@H]2[C@H](O)[C@@H](O)[C@H](O[C@H]3[C@H](O)CN[C@@H]3CO)O[C@@H]2CO)[C@H](O)[C@@H](O)[C@@H]1O [Example 13, (2R,3R,4R)-4-Hydroxy-2-hydroxymethyl-pyrrolidin-3-yl 4-O-(6-deoxy-α-D-glucopyranosyl)-β-D-glucopyranoside] | 9.06 | – | –
C[C@H]1O[C@H](O[C@H]2[C@H](O)[C@@H](O)[C@@H](O[C@H]3[C@H](O)[C@@H](O)[C@H](N)[C@@H]3CO)O[C@@H]2CO)[C@H](O)[C@@H](O)[C@@H]1O [Example 14, (1R,2S,3R,4R,5R)-1-Amino-2,3-dihydroxy-5-hydroxymethyl-cyclopent-4-yl 4-O-(6-deoxy-α-D-glucopyranosyl)-α-D-glucopyranoside] | 2.12 | – | –
C[C@H]1O[C@@H](O[C@H]2[C@H](O)[C@@H](O)[C@@H](O[C@H]3[C@H](O)[C@@H](O)[C@H](N)[C@@H]3CO)O[C@@H]2CO)[C@H](O)[C@@H](O)[C@@H]1O [Example 15, (1R,2S,3R,4R,5R)-1-Amino-2,3-dihydroxy-5-hydroxymethyl-cyclopent-4-yl 4-O-(6-deoxy-β-D-glucopyranosyl)-α-D-glucopyranoside] | 1.27 | – | –
